Experimental data as given in patent US10913727B2, “Modulators of the integrated stress pathway” (Calico Life Sciences LLC, priority 2016, dated 2021).

System: HEK293T cells carrying the ATF4 luciferase reporter
Assay: ATF4-Luc assay, in vitro model of Vanishing Cell White Matter Disease (VWMD)
Assay type: cell-based
Details: Homo sapiens, HEK-293T, 1 μg/mL tunicamycin, 7 hours, One Glo luminescence
Procedure, shortened: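 Compound at 200 nM and tunicamycin at 1 μg/mL were given together for 7 h to HEK293T cells stably transduced with an ATF4 5′-UTR-driven firefly luciferase reporter. Read-out by luminescence, reported as EC50.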

| SMILES | EC50 [nM] |
| --- | --- |
| O=C(COc1ccc(Cl)c(F)c1)NC12CCC(NC(=O)c3ccc(F)cn3)(CC1)C(O)C2 (stereo not drawn) [Compound 168, N-{4-[2-(4-chloro-3-fluorophenoxy)acetamido]-2-hydroxybicyclo[2.2.2]octan-1-yl}-5-fluoropyridine-2-carboxamide] | 50 to 250 |
| O=C(COc1ccc(Cl)c(F)c1)NC12CC(NC(=O)c3ccc(F)cc3F)(C1)C2 [Compound 511, N-{3-[2-(4-chloro-3-fluorophenoxy)acetamido]bicyclo[1.1.1]pentan-1-yl}-2,4-difluorobenzamide] | 250 to 1000 |
| O=C(COc1ccc(Cl)c(F)c1)NC12CC(NC(=O)c3cnco3)(C1)C2 [Compound 573, N-{3-[2-(4-chloro-3-fluorophenoxy)acetamido]bicyclo[1.1.1]pentan-1-yl}-1,3-oxazole-5-carboxamide] | 1000 to 2000 |
| O=C(COc1ccc(Cl)c(F)c1)NC12CC(NC(=O)c3cc4ccccn4c3)(C1)C2 [Compound 689, N-{3-[2-(4-chloro-3-fluorophenoxy)acetamido]bicyclo[1.1.1]pentan-1-yl}indolizine-2-carboxamide] | 50 to 250 |
| O=C(COc1ccc(Cl)c(Cl)c1)NC12CC(NC(=O)c3cnccn3)(C1)C2 [Compound 164, N-{3-[2-(3,4-dichlorophenoxy)acetamido]bicyclo[1.1.1]pentan-1-yl}pyrazine-2-carboxamide] | 50 to 250 |
| Cc1nc(C(=O)NC23CC(NC(=O)COc4ccc(Cl)c(F)c4)(C2)C3)sc1C [Compound 470, N-{3-[2-(4-chloro-3-fluorophenoxy)acetamido]bicyclo[1.1.1]pentan-1-yl}-4,5-dimethyl-1,3-thiazole-2-carboxamide] | 50 to 250 |
| Cc1cc(C(=O)NC23CCC(NC(=O)COc4ccc(F)c(F)c4)(CC2)C(=O)C3)on1 [Compound 461, N-{4-[2-(3,4-difluorophenoxy)acetamido]-3-oxobicyclo[2.2.2]octan-1-yl}-3-methyl-1,2-oxazole-5-carboxamide] | 1000 to 2000 |
| O=C(COc1ccc(Cl)c(F)c1)NC12CCC(NC(=O)c3ccc(OC(F)(F)F)cn3)(CC1)CC2O (stereo not drawn) [Compound 480, N-{4-[2-(4-chloro-3-fluorophenoxy)acetamido]-3-hydroxybicyclo[2.2.2]octan-1-yl}-5-(trifluoromethoxy)pyridine-2-carboxamide] | < 50 |
| CCc1cc(C(=O)NC23CCC(NC(=O)COc4ccc(Cl)c(F)c4)(CC2)[C@@H](O)C3)on1 [Compound 618, N-{(3S)-4-[2-(4-chloro-3-fluorophenoxy)acetamido]-3-hydroxybicyclo[2.2.2]octan-1-yl}-3-ethyl-1,2-oxazole-5-carboxamide] | < 50 |
| O=C(COc1ccc(Cl)c(F)c1)NC12CC(NC(=O)c3cnc(C4CCOCC4)o3)(C1)C2 [Compound 139, N-{3-[2-(4-chloro-3-fluorophenoxy)acetamido]bicyclo[1.1.1]pentan-1-yl}-2-(oxan-4-yl)-1,3-oxazole-5-carboxamide] | 250 to 1000 |
| CN(C)c1ccc(C(=O)NC23CC(NC(=O)COc4ccc(Cl)c(F)c4)(C2)C3)cc1 [Compound 536, N-{3-[2-(4-chloro-3-fluorophenoxy)acetamido]bicyclo[1.1.1]pentan-1-yl}-4-(dimethylamino)benzamide] | 250 to 1000 |
| O=C(COc1ccc(Cl)c(F)c1)NC12CC(Nc3cc(-c4ccc(Cl)cc4)ccn3)(C1)C2 [Compound 415, 2-(4-chloro-3-fluorophenoxy)-N-(3-{[4-(4-chlorophenyl)pyridin-2-yl]amino}bicyclo[1.1.1]pentan-1-yl)acetamide] | > 2000 |
| O=C(COc1ccc(Cl)c(F)c1)NC12CC(Nc3nccn4nccc34)(C1)C2 [Compound 722, 2-(4-chloro-3-fluorophenoxy)-N-{3-[(pyrazolo[1,5-a]pyrazin-4-yl)amino]bicyclo[1.1.1]pentan-1-yl}acetamide] | 50 to 250 |
| O=C(COc1ccc(Cl)c(Cl)c1)NC12CC(NC(=O)c3ccc(OC(F)F)cn3)(C1)C2 [Compound 153, N-{3-[2-(3,4-dichlorophenoxy)acetamido]bicyclo[1.1.1]pentan-1-yl}-5-(difluoromethoxy)pyridine-2-carboxamide] | 50 to 250 |
| O=C(COc1ccc(Cl)c(F)c1)NC12CC(NC(=O)c3cnc4[nH]ccc4c3)(C1)C2 [Compound 746, N-{3-[2-(4-chloro-3-fluorophenoxy)acetamido]bicyclo[1.1.1]pentan-1-yl}-1H-pyrrolo[2,3-b]pyridine-5-carboxamide] | 50 to 250 |
| O=C(COc1ccc(Cl)c(F)c1)NC12CC(NC(=O)c3coc(-c4ccc(Cl)c(F)c4)n3)(C1)C2 [Compound 108, N-{3-[2-(4-chloro-3-fluorophenoxy)acetamido]bicyclo[1.1.1]pentan-1-yl}-2-(4-chloro-3-fluorophenyl)-1,3-oxazole-4-carboxamide] | < 50 |
| Cc1onc(-c2ccccn2)c1C(=O)NC12CC(NC(=O)COc3ccc(Cl)c(F)c3)(C1)C2 [Compound 804, N-{3-[2-(4-chloro-3-fluorophenoxy)acetamido]bicyclo[1.1.1]pentan-1-yl}-5-methyl-3-(pyridin-2-yl)-1,2-oxazole-4-carboxamide] | > 2000 |

| SMILES | EC50 [nM] |
| --- | --- |
| O=C(COc1ccc(Cl)c(F)c1)NC12CC(NC(=O)c3cncc(F)c3)(C1)C2 [Compound 792, N-{3-[2-(4-chloro-3-fluorophenoxy)acetamido]bicyclo[1.1.1]pentan-1-yl}-5-fluoropyridine-3-carboxamide] | 250 to 1000 |
| Cc1cc(C)c(C(=O)NC23CC(NC(=O)COc4ccc(Cl)c(F)c4)(C2)C3)cn1 [Compound 815, N-{3-[2-(4-chloro-3-fluorophenoxy)acetamido]bicyclo[1.1.1]pentan-1-yl}-4,6-dimethylpyridine-3-carboxamide] | > 2000 |
| Cc1cc(C(=O)NC23CCC(NC(=O)COc4ccc(Cl)c(Cl)c4)(C2)C3)nn1-c1ccc(Cl)cc1 [Compound 111, 1-(4-chlorophenyl)-N-{4-[2-(3,4-dichlorophenoxy)acetamido]bicyclo[2.1.1]-hexan-1-yl}5-methyl-1H-pyrazole-3-carboxamide] | > 2000 |
| O=C(COc1ccc(Cl)c(F)c1)NC12CC(NC(=O)c3ncc(Cl)cc3F)(C1)C2 [Compound 770, 5-chloro-N-{3-[2-(4-chloro-3-fluorophenoxy)acetamido]bicyclo[1.1.1]pentan-1-yl}-3-fluoropyridine-2-carboxamide] | 1000 to 2000 |
| O=C(COc1ccc(Cl)c(F)c1)NC12CC(NC(=O)c3cncnc3)(C1)C2 [Compound 188, N-{3-[2-(4-chloro-3-fluorophenoxy)acetamido]bicyclo[1.1.1]pentan-1-yl}pyrimidine-5-carboxamide] | 250 to 1000 |
| CN(C)Cc1ccccc1C(=O)NC12CC(NC(=O)COc3ccc(Cl)c(F)c3)(C1)C2 [Compound 542, N-{3-[2-(4-chloro-3-fluorophenoxy)acetamido]bicyclo[1.1.1]pentan-1-yl}-2-[(dimethylamino)methyl]benzamide] | > 2000 |
| O=C(COc1ccc(Cl)cc1)NC12CC(NC(=O)c3ccc(OC(F)(F)F)nc3)(C1)C2 [Compound 570, N-{3-[2-(4-chlorophenoxy)acetamido]bicyclo[1.1.1]pentan-1-yl}-6-(trifluoromethoxy)pyridine-3-carboxamide] | 50 to 250 |
| CCn1cc(C(=O)NC23CC(NC(=O)COc4ccc(Cl)c(F)c4)(C2)C3)cn1 [Compound 252, N-{3-[2-(4-chloro-3-fluorophenoxy)acetamido]bicyclo[1.1.1]pentan-1-yl}-1-ethyl-1H-pyrazole-4-carboxamide] | 250 to 1000 |
| O=C(COc1ccc(Cl)c(F)c1)NC12CCC(NC(=O)c3cccc(O)n3)(CC1)CC2O (stereo not drawn) [Compound 943, N-{4-[2-(4-chloro-3-fluorophenoxy)acetamido]-3-hydroxybicyclo[2.2.2]octan-1-yl}-6-hydroxypyridine-2-carboxamide] | 50 to 250 |
| O=C(COc1ccc(Cl)c(F)c1)NC12CC(Nc3cnc(C(F)(F)F)nc3)(C1)C2 [Compound 755, 2-(4-chloro-3-fluorophenoxy)-N-(3-{[2-(trifluoromethyl)pyrimidin-5-yl]amino}bicyclo[1.1.1]pentan-1-yl)acetamide] | 250 to 1000 |
| O=C(COc1ccc(Cl)c(F)c1)NC12CCC(NC(=O)c3coc4c3C(=O)CCC4)(CC1)C(O)C2 (stereo not drawn) [Compound 222, N-{4-[2-(4-chloro-3-fluorophenoxy)acetamido]-2-hydroxybicyclo[2.2.2]octan-1-yl}-4-oxo-4,5,6,7-tetrahydro-1-benzofuran-3-carboxamide] | > 2000 |
| O=C(COc1ccc(Cl)c(F)c1)NC12CC(NC(=O)c3ccc(CO)nc3)(C1)C2 [Compound 718, N-{3-[2-(4-chloro-3-fluorophenoxy)acetamido]bicyclo[1.1.1]pentan-1-yl}-6-(hydroxymethyl)pyridine-3-carboxamide] | 250 to 1000 |
| Cc1ccn2cc(C(=O)NC34CCC(NC(=O)COc5ccc(Cl)c(F)c5)(CC3)C(O)C4)nc2c1 (stereo not drawn) [Compound 598, N-{4-[2-(4-chloro-3-fluorophenoxy)acetamido]-3-hydroxybicyclo[2.2.2]octan-1-yl}-7-methylimidazo[1,2-a]pyridine-2-carboxamide] | 50 to 250 |
| O=C(COc1ccc(Cl)c(F)c1)NC12CCC(NC(=O)c3cn4ccccc4n3)(CC1)CC2O (stereo not drawn) [Compound 601, N-{4-[2-(4-chloro-3-fluorophenoxy)acetamido]-3-hydroxybicyclo[2.2.2]octan-1-yl}imidazo[1,2-a]pyridine-2-carboxamide] | 250 to 1000 |
| O=C(COc1ccc(Cl)c(F)c1)NC12CCC(NC(=O)c3cnc(-c4ccccc4)o3)(CC1)C[C@@H]2O [Compound 931, N-{(3S)-4-[2-(4-chloro-3-fluorophenoxy)acetamido]-3-hydroxybicyclo[2.2.2]octan-1-yl}-2-phenyl-1,3-oxazole-5-carboxamide] | < 50 |
| O=C(COc1ccc(Cl)c(F)c1)NC12CC(NC(=O)c3cccc4nsnc34)(C1)C2 [Compound 803, N-{3-[2-(4-chloro-3-fluorophenoxy)acetamido]bicyclo[1.1.1]pentan-1-yl}-2,1,3-benzothiadiazole-4-carboxamide] | > 2000 |
